Data from USRE43879E1, “Use of the dextrogyral enantiomer of milnacipran for the preparation of a drug” (priority 2003, dated 2012).

Key:
primary rat hepatocytes [1] = assay: Cytotoxicity test (MTT-assay) on primary rat hepatocytes; assay type: cell-based; details: 16 hours
Protocol: The […] and […] compounds, enantiomers of the racemic molecule […], as well as clomipramine, a reference product, (coded […] in the study) were assessed in the present study. The two enantiomers, […] and […], were first assessed in a preliminary cytotoxicity text (MTT-assay) on primary rat hepatocytes, in order to select the three concentrations to be used in the final test. The cells used in the study (preliminary MTT-assay of cytotoxicity and the main test) are cryopreserved hepatocytes from Sprague-Dawley rats in primary culture (batches Hep184005 and Hep184006-Biopredic), cultured under standard conditions. […] Formazan is solubilised in an organic solvent and the solution obtained can be measured by spectrophotometry. The absorbance measured is proportional to the number of surviving cells. The cells are put into contact with the product to be tested at […] (0-1-10-25-50 and 100 μM) for 16 hours. After this period of exposure, an MTT solution (0.5 mg/ml in the incubation medium of the primary hepatocytes) is added for 3 hours. After solubilisation of the formazan crystals, the multi-well plates are read with a spectrophotometer at 500 nm in order to determine the percentage of cell viability. These assays were performed in triplicate on primary rat hepatocytes exposed for 16 hours.

primary rat hepatocytes [2] = assay: Safe-Hit genomic test of predictive toxicology (Toxicity Index) on primary rat hepatocytes; assay type: cell-based; details: 16 h
Excerpt: After treatment of the primary rat hepatocytes in culture, the RNA was extracted in order to generate labelled complementary-DNA probes which were then hybridised on a membrane containing 682 alternatively-spliced fragments specific to cell stress. A Toxicity Index was obtained for each of the products by comparing the hybridisation profile of the treated cells with that of the untreated cells.
Safe-Hit allows molecules within a chemical series to be ranked according to a Toxic Index, determined after the following basic steps (systematically performed in duplicate for each product): • treatment of the cells lines with the various products at three different concentrations, deduced from a preliminary cytotoxicology test (MTT-assay): a reference concentration corresponding to 80% cell viability, a concentration 10-fold higher—when possible—and a concentration 10-fold lower, • preparation of total RNA and of the corresponding radio-labelled cDNA probes, • hybridisation of the cDNA probes: the Safe-Hit macroarray contains 682 independent clones, corresponding to alterations in gene splicing induced by overexpression of WTp53 (p53 is the most ubiquitous “mediator” of cell stress, chosen for the development of this methodology), • acquisition and determination of the Toxicity Index. 4.1.2. Cells
The cells used in the study (preliminary MTT-assay of cytotoxicity and the main test) are cryopreserved hepatocytes from Sprague-Dawley rats in primary culture (batches Hep184005 and Hep184006-Biopredic), cultured under standard conditions.
The cells are seeded and cultured for 16 hours with each product, at the three concentrations chosen on the basis of the preliminary MTT-assay; two controls (untreated cells in solvent alone) are added to the series.
The results of the two Safe-Hit analyses are then compared and combined to assess the potential toxicity of the various compounds tested. Two parameters that can be modified by the user are involved in the calculation of the Toxicity Index: • Background Threshold (BT) smoothes out weak signals, close to background noise and not attributable to significant gene expression. […] The value of this parameter is usually 2 or less than 2 in order to obtain relevant results. […]
Toxicity Indices (TI) were determined as described above. […] Two separate analyses were performed using two levels of differentiation (Induction Factor-IF) in relation to the untreated controls: • a factor of at least 1.7 in relation to the untreated controls. This factor of 1.7 times represents the weakest value that allows an index not to be obtained in relation to the two untreated controls. • a factor of at least 2 in relation to the untreated controls. This factor of 2 times allows the most robust signals to be taken into account. 4.3.1. Induction Factor of 1.7 in Relation to Untreated Control (Table 7)

With `CN(C)CCCN1c2ccccc2CCc2ccc(Cl)cc21` [C218, clomipramine] the “Toxicity in MTT-assay” value (primary rat hepatocytes [1]; 25 μM) was “no toxicity was observed”, the “Cell viability in MTT-assay” value (primary rat hepatocytes [1]; 50 μM) was “greater than 80%” and the “Cytotoxicity / cell viability in MTT-assay” value (primary rat hepatocytes [1]; 100 μM) was “no cell viability was observed”. The “Clone A09 (H. sapiens mitochondrion, 12S), regulation factor vs untreated control” value (shortened to “Clone A09 … vs untreated control”) (primary rat hepatocytes [2]; 1 μM) was 2.90, the “Clone AA11 (H. sapiens Repeat sequence AluJb fragment inserted into a cDNA coding for an unknown protein), regulation factor vs untreated control” value (“Clone AA11 … vs untreated control” below) (primary rat hepatocytes [2]; 1 μM) was 0.38 and the “Clone AC13 (H. sapiens 7S RNA L gene), regulation factor vs untreated control” value (“Clone AC13 … vs untreated control” for short) (primary rat hepatocytes [2]; 1 μM) was 0.28. For the same molecule, the “Clone C01 (H. sapiens mitochondrion, 16S), regulation factor vs untreated control” value (from here on “Clone C01 … vs untreated control”) (primary rat hepatocytes [2]; 1 μM) was 1.93, the “Clone T08 (H. sapiens mRNA for KIAA1185 protein), regulation factor vs untreated control” value (shortened to “Clone T08 … vs untreated control”) (primary rat hepatocytes [2]; 1 μM) was 0.35 and the “Clone U04 (H. sapiens translation initiation factor elF-2alpha mRNA), regulation factor vs untreated control” value (from here on “Clone U04 … vs untreated control”) (primary rat hepatocytes [2]; 1 μM) was 0.48. The “Clone X02 (unk), regulation factor vs untreated control” value (“Clone X02 (unk) … vs untreated control” for short) (primary rat hepatocytes [2]; 1 μM) was 0.36, the “Clone X06 (H. sapiens Genomic sequence from 9q34), regulation factor vs untreated control” value (“Clone X06 … vs untreated control” for short) (primary rat hepatocytes [2]; 1 μM) was 0.23 and the “Clone Z13 (unk), regulation factor vs untreated control” value (shortened to “Clone Z13 (unk) … vs untreated control”) (primary rat hepatocytes [2]; 1 μM) was 0.34. The “Clone A09 … vs untreated control” value (primary rat hepatocytes [2]; 10 μM) was 2.23, the “Clone AA11 … vs untreated control” value (primary rat hepatocytes [2]; 10 μM) was 0.27 and the “Clone AC13 … vs untreated control” value (primary rat hepatocytes [2]; 10 μM) was 0.16. For the same molecule, the “Clone B20 (H. sapiens chromosome 19, BAC CIT-B-191n6), regulation factor vs untreated control” value (primary rat hepatocytes [2]; 10 μM) was 0.14, the “Clone B22 (H. sapiens Genomic sequence from 17), regulation factor vs untreated control” value (primary rat hepatocytes [2]; 10 μM) was 0.17 and the “Clone C01 … vs untreated control” value (primary rat hepatocytes [2]; 10 μM) was 1.82. For the same molecule, the “Clone E05 (H. sapiens DNA sequence from clone 740A11 on chromosome Xq22.2-23, part of COL4A5 gene), regulation factor vs untreated control” value (primary rat hepatocytes [2]; 10 μM) was 0.22, the “Clone E21 (H. sapiens ribosomal protein S14 gene), regulation factor vs untreated control” value (primary rat hepatocytes [2]; 10 μM) was 0.56 and the “Clone M12 (H. sapiens mRNA; cDNA DKFZp564C1563), regulation factor vs untreated control” value (primary rat hepatocytes [2]; 10 μM) was 0.16. The “Clone T08 … vs untreated control” value (primary rat hepatocytes [2]; 10 μM) was 0.14, the “Clone U04 … vs untreated control” value (primary rat hepatocytes [2]; 10 μM) was 0.22 and the “Clone X02 (unk) … vs untreated control” value (primary rat hepatocytes [2]; 10 μM) was 0.24. For the same molecule, the “Clone X05 (H. sapiens microsomal epoxide hydrolase (EPHX) gene), regulation factor vs untreated control” value (primary rat hepatocytes [2]; 10 μM) was 0.15, the “Clone X06 … vs untreated control” value (primary rat hepatocytes [2]; 10 μM) was 0.15 and the “Clone Z13 (unk) … vs untreated control” value (primary rat hepatocytes [2]; 10 μM) was 0.29. The “Clone A09 … vs untreated control” value (primary rat hepatocytes [2]; 100 μM) was 2.14, the “Clone AA11 … vs untreated control” value (primary rat hepatocytes [2]; 100 μM) was 0.31 and the “Clone AA13 (H. sapiens 18S rRNA gene), regulation factor vs untreated control” value (primary rat hepatocytes [2]; 100 μM) was 1.79. The “Clone AC13 … vs untreated control” value (primary rat hepatocytes [2]; 100 μM) was 0.28, the “Clone B20 (H. sapiens chromosome 19, BAC CIT-B-191n6), regulation factor vs untreated control” value (primary rat hepatocytes [2]; 100 μM) was 0.27 and the “Clone B22 (H. sapiens Genomic sequence from 17), regulation factor vs untreated control” value (primary rat hepatocytes [2]; 100 μM) was 0.32. For the same molecule, the “Clone C01 … vs untreated control” value (primary rat hepatocytes [2]; 100 μM) was 1.91, the “Clone E01 (H. sapiens mRNA for lipocortin II), regulation factor vs untreated control” value (primary rat hepatocytes [2]; 100 μM) was 1.73 and the “Clone E05 (H. sapiens DNA sequence from clone 740A11 on chromosome Xq22.2-23, part of COL4A5 gene), regulation factor vs untreated control” value (primary rat hepatocytes [2]; 100 μM) was 0.35. The “Clone E19 (H. sapiens mitochondrion, cytochrome c oxidase subunit 1), regulation factor vs untreated control” value (primary rat hepatocytes [2]; 100 μM) was 1.72, the “Clone E21 (H. sapiens ribosomal protein S14 gene), regulation factor vs untreated control” value (primary rat hepatocytes [2]; 100 μM) was 0.58 and the “Clone F24 (H. sapiens LIM homeobox protein cofactor (CLIM-1) mRNA), regulation factor vs untreated control” value (primary rat hepatocytes [2]; 100 μM) was 0.52. For the same molecule, the “Clone G01 (H. sapiens estrogen receptor-related protein (variant ER from breast cancer) mRNA), regulation factor vs untreated control” value (primary rat hepatocytes [2]; 100 μM) was 2.04, the “Clone G05 (H. sapiens mitochondrion, cytochrome c oxidase subunit 1), regulation factor vs untreated control” value (primary rat hepatocytes [2]; 100 μM) was 2.02 and the “Clone G09 (H. sapiens mitochondrion, cytochrome b), regulation factor vs untreated control” value (primary rat hepatocytes [2]; 100 μM) was 1.76. The “Clone I18 (H. sapiens 18S rRNA gene), regulation factor vs untreated control” value (primary rat hepatocytes [2]; 100 μM) was 1.88, the “Clone L23 (H. sapiens cDNA NIH_MGC_16 clone IMAGE: 3350241 5′, mRNA sequence), regulation factor vs untreated control” value (primary rat hepatocytes [2]; 100 μM) was 1.75 and the “Clone M07 (H. sapiens mitochondrion, cytochrome c oxidase subunit 1), regulation factor vs untreated control” value (primary rat hepatocytes [2]; 100 μM) was 1.75. For the same molecule, the “Clone M12 (H. sapiens mRNA; cDNA DKFZp564C1563), regulation factor vs untreated control” value (primary rat hepatocytes [2]; 100 μM) was 0.39, the “Clone Q11 (unk), regulation factor vs untreated control” value (primary rat hepatocytes [2]; 100 μM) was 1.92 and the “Clone S01 (Mus muculus TCR beta locus), regulation factor vs untreated control” value (primary rat hepatocytes [2]; 100 μM) was 2.98. For the same molecule, the “Clone T08 … vs untreated control” value (primary rat hepatocytes [2]; 100 μM) was 0.22, the “Clone U04 … vs untreated control” value (primary rat hepatocytes [2]; 100 μM) was 0.37 and the “Clone X02 (unk) … vs untreated control” value (primary rat hepatocytes [2]; 100 μM) was 0.31. The “Clone X05 (H. sapiens microsomal epoxide hydrolase (EPHX) gene), regulation factor vs untreated control” value (primary rat hepatocytes [2]; 100 μM) was 0.24, the “Clone X06 … vs untreated control” value (primary rat hepatocytes [2]; 100 μM) was 0.23 and the “Clone Z13 (unk) … vs untreated control” value (primary rat hepatocytes [2]; 100 μM) was 0.27. The “Clone Z20 (Homo sapiens cDNA wc44h09, similar to RAS_RELATED PROTEIN RAB-24, mRNA sequence), regulation factor vs untreated control” value (primary rat hepatocytes [2]; 100 μM) was 0.57, the “Number of down-regulated clones (Down)” value (primary rat hepatocytes [2]; Induction Factor 1.7, 1 μM) was 7 and the “Number of up-regulated clones (Up)” value (primary rat hepatocytes [2]; Induction Factor 1.7, 1 μM) was 2. The “Toxicity Index (TI, number of signatures)” value (from here on “Toxicity Index”) (primary rat hepatocytes [2]; Induction Factor 1.7, 1 μM) was 9, the “Number of down-regulated clones (Down)” value (primary rat hepatocytes [2]; Induction Factor 1.7, 10 μM) was 13 and the “Number of up-regulated clones (Up)” value (primary rat hepatocytes [2]; Induction Factor 1.7, 10 μM) was 2. The “Toxicity Index” value (primary rat hepatocytes [2]; Induction Factor 1.7, 10 μM) was 15, the “Toxicity Index” value (primary rat hepatocytes [2]; Induction Factor 1.7, 50 μM) was 28 and the “Number of down-regulated clones (Down)” value (primary rat hepatocytes [2]; Induction Factor 1.7, 100 μM) was 15. For the same molecule, the “Number of up-regulated clones (Up)” value (primary rat hepatocytes [2]; Induction Factor 1.7, 100 μM) was 13, the “Toxicity Index” value (primary rat hepatocytes [2]; Induction Factor 1.7, 100 μM) was 28 and the “Number of down-regulated clones (Down)” value (primary rat hepatocytes [2]; Induction Factor 2, 1 μM) was 7. The “Number of up-regulated clones (Up)” value (primary rat hepatocytes [2]; Induction Factor 2, 1 μM) was 1, the “Toxicity Index” value (primary rat hepatocytes [2]; Induction Factor 2, 1 μM) was 8 and the “Number of down-regulated clones (Down)” value (primary rat hepatocytes [2]; Induction Factor 2, 10 μM) was 12. For the same molecule, the “Number of up-regulated clones (Up)” value (primary rat hepatocytes [2]; Induction Factor 2, 10 μM) was 1, the “Toxicity Index” value (primary rat hepatocytes [2]; Induction Factor 2, 10 μM) was 13 and the “Toxicity Index” value (primary rat hepatocytes [2]; Induction Factor 2, 50 μM) was 16. The “Number of down-regulated clones (Down)” value (primary rat hepatocytes [2]; Induction Factor 2, 100 μM) was 12, the “Number of up-regulated clones (Up)” value (primary rat hepatocytes [2]; Induction Factor 2, 100 μM) was 4 and the “Toxicity Index” value (primary rat hepatocytes [2]; Induction Factor 2, 100 μM) was 16.
